# Experimental data taken from patent US20250230193A1, “CYCLIC COMPOUND HAVING SELECTIVE KRAS INHIBITORY EFFECT ON HRAS AND NRAS” (CHUGAI SEIYAKU KABUSHIKI KAISHA, priority 2022, published 2025).
# Columns and labels:
# [1] = biological target: GDP-bound NRAS wild-type protein (Homo sapiens, UniProt P01111); assay: Binding to NRAS by surface plasmon resonance (SPR), Single Cycle Kinetics; settings: SPR
# [2] = biological target: GDP-bound HRAS wild-type protein (Homo sapiens, UniProt P01112); assay: Binding to HRAS by surface plasmon resonance (SPR), Single Cycle Kinetics; settings: SPR
# GDP-bound HRAS wild-type protein, sequence (P01112 whole entry): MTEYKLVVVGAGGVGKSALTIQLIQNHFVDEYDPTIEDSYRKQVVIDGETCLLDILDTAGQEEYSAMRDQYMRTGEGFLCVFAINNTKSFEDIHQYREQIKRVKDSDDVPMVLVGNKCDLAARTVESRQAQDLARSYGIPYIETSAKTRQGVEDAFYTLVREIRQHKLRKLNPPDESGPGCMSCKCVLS
# [3] = KD ratio, GDP-bound NRAS wild-type vs GDP-bound KRAS wild-type
# [4] = KD ratio, GDP-bound HRAS wild-type vs GDP-bound KRAS wild-type
# GDP-bound NRAS wild-type protein, sequence (P01111 whole entry): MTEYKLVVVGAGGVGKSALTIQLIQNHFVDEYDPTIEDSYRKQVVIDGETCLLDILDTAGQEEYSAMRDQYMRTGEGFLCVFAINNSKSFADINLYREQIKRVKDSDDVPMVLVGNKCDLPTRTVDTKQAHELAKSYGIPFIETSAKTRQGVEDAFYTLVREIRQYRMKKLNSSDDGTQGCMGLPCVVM
compound,measurement,setting,value
CCO[C@@H]1C[C@H]2C(=O)NC3(CCC3)C(=O)N(C)[C@@H](C3CCCC3)C(=O)N(C)[C@H](C(=O)N(C)CCOC)CC(=O)N(C)[C@@H](CC)C(=O)N[C@@H]([C@@H](C)CC)C(=O)N(C)CC(=O)N(C)[C@H]3C/C=C\CCN(C3=O)[C@@H](Cc3ccc(C(F)(F)F)cc3)C(=O)N(C)CC(=O)N[C@@H](CCc3ccc(C(F)(F)F)c(OC)c3)C(=O)N2C1 [PP1321],NRAS/KRAS (ratio of KD value for GDP-bound NRAS wild-type protein to KD value for KRAS),[1]; KD ratio class,A (a compound having 10 or more and less than 20 is denoted as A)
same,HRAS/KRAS (ratio of KD value for GDP-bound HRAS wild-type protein to KD value for KRAS),[2]; KD ratio class,B (a compound having 3 or more and less than 10 is denoted as B)
CCO[C@@H]1C[C@H]2C(=O)NC3(CCC3)C(=O)N(C)[C@@H](C3CCCC3)C(=O)N(C)[C@H](C(=O)N(C)CC)CC(=O)N(C)[C@@H](CC3CC3)C(=O)N[C@@H]([C@@H](C)CC)C(=O)N(C)CC(=O)N(C)[C@H]3C/C=C\CCN(C3=O)[C@@H](Cc3ccc(C)cc3)C(=O)N(C)CC(=O)N[C@@H](CCc3ccc(C(F)(F)F)c(OC)c3)C(=O)N2C1 [PP1879],NRAS/KRAS (ratio of KD value for NRAS to KD value for KRAS),[1]; [3],A (a compound having 10 or more and less than 20 is denoted as A)
same,HRAS/KRAS (ratio of KD value for HRAS to KD value for KRAS),[2]; [4],B (a compound having 3 or more and less than 10 is denoted as B)
CCC[C@H]1C(=O)N[C@@H]([C@@H](C)CC)C(=O)N(C)CC(=O)N(C)[C@H]2C/C=C\CCN(C2=O)[C@@H](Cc2ccc(C)cc2)C(=O)N(C)CC(=O)N[C@@H](CCc2ccc(C(F)(F)F)c(Cl)c2)C(=O)N2C[C@H](OCC)C[C@H]2C(=O)NC2(CC(C)(C)C2)C(=O)N(C)[C@@H](CC(F)(F)F)C(=O)N(C)[C@H](C(=O)N(C)C)CC(=O)N1C [PP2226],NRAS/KRAS (ratio of KD value with respect to NRAS to KD value with respect to KRAS),[1]; GDP-bound NRAS wild-type vs GDP-bound KRAS wild-type,A (a compound having 10 or more and less than 20 is denoted as A)
same,HRAS/KRAS (ratio of KD value with respect to HRAS to KD value with respect to KRAS),[2]; GDP-bound HRAS wild-type vs GDP-bound KRAS wild-type,A (a compound having 10 or more and less than 20 is denoted as A)
CC[C@H](C)[C@@H]1NC(=O)[C@H](CC(C)C)N(C)C(=O)C[C@@H](C(=O)N2CCOCC2)N(C)C(=O)[C@H](C2CCCC2)N(C)C(=O)C2(CCCC2)NC(=O)[C@@H]2CC(=O)CN2C(=O)[C@H](CCc2cc(F)c(C(F)(F)F)c(F)c2)NC(=O)CN(C)C(=O)[C@H](Cc2ccc(C(F)(F)F)cc2)N2CCCCC[C@@H](C2=O)N(C)C(=O)CN(C)C1=O [PP0493],NRAS/KRAS (ratio of KD value with respect to GDP-bound NRAS wild-type protein to KD value with respect to KRAS),[1],B (a compound having 3 or more and less than 10 is denoted as B)
same,HRAS/KRAS (ratio of KD value with respect to GDP-bound HRAS wild-type protein to KD value with respect to KRAS),[2],B (a compound having 3 or more and less than 10 is denoted as B)
"CCC[C@H]1C(=O)N[C@@H]([C@@H](C)CC)C(=O)N(C)CC(=O)N(C)[C@H]2C/C=C\CCN(C2=O)[C@@H](Cc2ccc(C(F)(F)F)cc2)C(=O)N(C)CC(=O)N[C@@H](CCc2ccc(C(F)(F)F)c(OC)c2)C(=O)N2C[C@H](OCC)C[C@H]2C(=O)N(C)C2(CCC2)C(=O)N(C)[C@@H](C2CCCC2)C(=O)N(C)[C@H](C(=O)N2CCCC2)CC(=O)N1C [PP3105, (2S,8S,12R,14S,20S,23S,27S,30S,36S,38Z)-20-cyclopentyl-12-ethoxy-8-[2-[3-methoxy-4-(trifluoromethyl)phenyl]ethyl]-4,16,19,22,26,32,35-heptamethyl-30-[(1S)-1-methylpropyl]-27-propyl-23-(pyrrolidine-1-carbonyl)-2-[[4-(trifluoromethyl)phenyl]methyl]spiro[1,4,7,10,16,19,22,26,29,32,35-undecazatricyclo[34.5.1.0^10,14]dotetracont-38-ene-17,1′-cyclobutane]-3,6,9,15,18,21,25,28,31,34,42-undecone]",NRAS/KRAS (ratio of KD value with respect to GDP-bound NRAS wild-type protein to KD value with respect to KRAS),[1]; GDP-bound wild-type proteins,AA (a compound having 20 or more is denoted as AA)
same,HRAS/KRAS (ratio of KD value with respect to GDP-bound HRAS wild-type protein to KD value with respect to KRAS),[2]; GDP-bound wild-type proteins,A (a compound having 10 or more and less than 20 is denoted as A)
C#CC[C@H]1C(=O)N[C@@H]([C@@H](C)CC)C(=O)N(C)CC(=O)N(C)[C@H]2CCCCN(C2=O)[C@@H](Cc2ccc(C(F)(F)F)cc2)C(=O)N(C)CC(=O)N[C@@H](CCc2cc(F)c(C(F)(F)F)c(F)c2)C(=O)N2C[C@H](OCC)C[C@H]2C(=O)NC2(CCC2)C(=O)N(C)[C@@H](C2CCCC2)C(=O)N(C)[C@H](C(=O)N2CCOCC2)CC(=O)N1C [PP0711],NRAS/KRAS (ratio of KD value with respect to GDP-bound NRAS wild-type protein to KD value with respect to KRAS),[1],C (A compound having a KD ratio of 0.1 or more and less than 3 is denoted as C)
same,HRAS/KRAS (ratio of KD value with respect to GDP-bound HRAS wild-type protein to KD value with respect to KRAS),[2],B (a compound having 3 or more and less than 10 is denoted as B)
CCO[C@@H]1C[C@H]2C(=O)NC3(CCCC3)C(=O)N(C)[C@@H](C3CCCC3)C(=O)N(C)[C@H](C(=O)N(C)C)CC(=O)N(C)[C@@H](CC)C(=O)N[C@@H]([C@@H](C)CC)C(=O)N(C)CC(=O)N(C)[C@H]3CC(C)=CCN(C3=O)[C@@H](Cc3ccc(C(F)(F)F)cc3)C(=O)N(C)CC(=O)N[C@@H](CCc3cc(F)c(C(F)(F)F)c(F)c3)C(=O)N2C1 [PP1036],NRAS/KRAS (ratio of KD value with respect to NRAS to KD value with respect to KRAS),[1]; [3],C (A compound having a KD ratio of 0.1 or more and less than 3 is denoted as C)
same,HRAS/KRAS (ratio of KD value with respect to HRAS to KD value with respect to KRAS),[2]; [4],C (A compound having a KD ratio of 0.1 or more and less than 3 is denoted as C)
